# From patent US10091997B2, “Composition for inhibition of insect host sensing” (Vanderbilt University, priority 2010, dated 2018)
# Key:
# [1] = system: AgORco-expressing neurons (CpB/C); assay: single sensillum recordings, capitate peg sensilla, CpB/C neurons; format: in vivo, Anopheles gambiae; settings: delivered via glass recording electrode, adult females
# Procedure: (§1) Single sensillum recordings were performed on 4-7 day old, non-bloodfed Anopheles gambiae females maintained on 10% sucrose and a 12/12 light dark cycle. Legs, wings and antennae were removed from cold-anesthetized females that were then restrained on double-stick tape with thread. A glass reference electrode filled with Sensillar lymph ringers (SLR)(Xu, 2005) was placed in the eye and the recording electrode filled with DMSO or VUAA1 diluted in SLR was used to puncture sensilla at their base. Responses were recorded and digitized using a Syntech IDAC-4 and analyzed with AutoSpike software (Syntech). New glass recording pipettes were used for every recording. Data was sampled at 12 kHz.
# (§2) The inventors next performed single unit, extracellular electrophysiological recordings on adult female An. gambiae to determine whether VUAA1 could activate AgORco-expressing odorant receptor neurons (ORNs) in vivo. ORNs, which express AgORco and a conventional OR are enclosed within the hair-like sensilla present on olfactory tissues. […] CpA is clearly distinguished from CpB/C by its large action potential amplitude. The action potential amplitudes of CpB and CpC are much smaller and in some preparations indistinguishable from each other; as a result, the spike activity of CpB and CpC neurons were binned for data analysis. […]
# [2] = target: T1, rat transient receptor potential vanilloid 1 (rTRPV1) (Rattus norvegicus, UniProt O35433); assay: whole-cell patch clamp, HEK cells stably expressing rTRPV1; format: cell-based
# T1 construct: expressed in transfected cells
# Procedure: Electrophysiological data was recorded and analyzed using pCLAMP 10 (Axon Instruments). Electrodes were fabricated from quartz tubing (Sutter Instruments) and pulled to 4-6 MΩ for whole cell recording. Electrodes were filled with internal solution (120 mM KCl, 30 mM D-glucose, 10 mM HEPES, 2 mM MgCl2, 1.1 mM EGTA, and 0.1 CaCl2 (pH 7.35, 280 mOsm). External (bath) solution contained 130 mM NaCl, 34 mM D-glucose, 10 mM HEPES, 1.5 mM CaCl2, 1.3 mM KH2PO4, and 0.5 MgSO4 (pH 7.35, 300 mOsm). Compounds were diluted in external solution and locally perfused to the recording cell using Perfusion Pencil (Automate Scientific) and controlled by a ValveLink 8.2 controller (Automate Scientific). Whole cell recordings were sampled at 10 kHz and filtered at 5 kHz. Outside-out patches were obtained using 10-15MΩ electrodes pulled from standard glass capillaries (World Precision Instruments) and fire-polished with an MF-830 micro forge (Narishige). Single channel recordings were sampled at 20 kHz. Recordings were reduced to 1 kHz and low-pass filtered at 500 Hz for display and analysis using QuB (SUNY at Buffalo).
# To determine the broad-spectrum specificity of VUAA1, the inventors tested VUAA1 on another non-selective cation channel, transient receptor potential vanilloid receptor 1 (TRPV1) (Caterina, 1997; Bohlen, 2010).
# An. gambiae larvae = assay: larval behavioral (movement) bioassay, Ethovision; format: in vivo, Anopheles gambiae
# Procedure: FIG. 9. VUAA1's larval activity threshold relative to DEET is 5 orders of magnitude lower and AgORco dependent. Larval activity in An. gambiae over 5 minutes monitored in 6-well culture plates using Ethovision (Noldus) software.
# In order to address whether VUAA1 as a non-volatile could also evoke behavioral responses from An. gambiae, the inventors tested behavioral responses to VUAA1 on individual larval stage mosquitoes by adaptation of an olfactory based bioassay recently developed at Vanderbilt (described in Liu et al., 2010). These methods are non-invasive, and easily executed using a fully automated setup with an Ethovision® camera/software system (Noldus Information Technology to quantify the overall movement of mosquito larvae in response to uniform concentrations of chemicals. In these assays, increased overall movement can be interpreted as an aversive response (akin to agitation) that are consistent with those evoked by commercially available insect repellents such as DEET.
# [3] = system: CpA neuron (CO2 sensitive, does not express AgORco); assay: single sensillum recordings, capitate peg sensilla, CpA neuron; format: in vivo, Anopheles gambiae; settings: CO2 pulse at completion of assay, adult females
# Procedure: as §1, §2
# T1 sequence (O35433 whole entry): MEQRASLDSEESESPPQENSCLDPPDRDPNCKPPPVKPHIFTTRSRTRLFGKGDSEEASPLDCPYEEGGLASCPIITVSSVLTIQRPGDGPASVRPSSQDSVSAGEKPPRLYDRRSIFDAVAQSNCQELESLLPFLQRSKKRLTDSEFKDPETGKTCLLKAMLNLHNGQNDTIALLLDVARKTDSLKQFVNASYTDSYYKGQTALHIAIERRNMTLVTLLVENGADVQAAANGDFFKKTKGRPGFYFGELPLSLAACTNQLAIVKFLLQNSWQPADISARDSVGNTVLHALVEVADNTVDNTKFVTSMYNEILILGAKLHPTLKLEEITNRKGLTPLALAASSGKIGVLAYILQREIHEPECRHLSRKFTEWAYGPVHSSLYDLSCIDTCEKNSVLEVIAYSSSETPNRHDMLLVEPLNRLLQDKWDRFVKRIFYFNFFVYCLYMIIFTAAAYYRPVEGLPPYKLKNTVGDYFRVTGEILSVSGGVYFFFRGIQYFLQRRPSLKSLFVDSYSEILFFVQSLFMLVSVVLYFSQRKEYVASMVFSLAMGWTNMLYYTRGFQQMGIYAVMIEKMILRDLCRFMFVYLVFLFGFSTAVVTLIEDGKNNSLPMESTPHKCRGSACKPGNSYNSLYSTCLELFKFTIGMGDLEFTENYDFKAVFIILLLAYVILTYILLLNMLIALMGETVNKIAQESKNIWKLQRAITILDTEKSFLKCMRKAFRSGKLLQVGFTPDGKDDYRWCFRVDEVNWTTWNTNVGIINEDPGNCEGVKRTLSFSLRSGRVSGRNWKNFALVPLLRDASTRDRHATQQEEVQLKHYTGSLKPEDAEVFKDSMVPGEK
smiles,measurement,setting,value
CCc1ccc(NC(=O)CSc2nnc(-c3cccnc3)n2CC)cc1 [VUAA1],spike frequency of CpB/C neurons,[1],increased the spike frequency of CpB/C neurons in a dose-dependent manner
same,whole-cell currents,[2],did not elicit currents
same,larval behavioral responses (overall movement),"An. gambiae larvae; An. gambiae larvae, 5 minutes",robust responses
same,larval response after AgORco silencing,An. gambiae larvae; larvae treated with AgOrco siRNAs,no longer respond
same,larval response after mock or non-specific siRNA control injection,An. gambiae larvae; mock or non-specific siRNA control injection,retain their high sensitivity
same,threshold of larval responses lower than DEET,An. gambiae larvae; relative to DEET,5 orders of magnitude
same,CpA activity,[3],unchanged
